Laboratory results from patent publication US8450354B2, “Substituted imidazo[1,2-b]pyridazine derivatives, pharmaceutical compositions, and methods of use as β-secretase inhibitors” (High Point Pharmaceuticals, LLC, priority 2010, dated 2013).

What was measured:
[1] = target: T1, BACE-1 enzyme (Homo sapiens, UniProt P56817); assay: BACE Fluorescence Resonance Energy Transfer (FRET) Assay; type: biochemical; conditions: pH 4-4.5, 30 min pre-incubation, about 1.5 hours reaction, asterisk = mean
T1 construct: purchased R & D Systems 931AS
Procedure: BACE Fluorescence Resonance Energy Transfer (FRET) Assay
In the following assay, the proteolytic activity of BACE is measured by observing cleavage of a fluorescent group from a peptide substrate containing a rhodamine fluorescent donor and a quenching acceptor.
The inhibitory activity of compounds of Formula (I) may be compared to a statine derived control inhibitor STA200 (MP Biomedical Cat. #STA-200). The cleavage reaction occurs when a BACE-1 substrate (Invitrogen, Cat. #P2986) was added to a reaction mixture containing BACE-1 enzyme (R & D Systems, Cat. #931AS) and allowed to proceed for about 1.5 hours. Fluorescence, used as a marker of BACE activity, is monitored using 540 nm excitation and 585 nm emission wavelengths (Envision, Perkin Elmer).
A typical assay reaction contains BACE-1 enzyme-in assay buffer (50 mM sodium acetate, pH 4-4.5, 0.01% CHAPS (3-[(3-Cholamidopropyl)dimethylammonio]-1-propanesulfonate), 0.0125% TritonX-100, 0.006% EDTA) which is pre-incubated for 30 minutes with test compound in 7.5% DMSO. The reaction is initiated with the addition of BACE-1 substrate in assay buffer and allowed to proceed for about 1.5 hours at room temperature. Assays are conducted in black 384-well microtiter plates and scanned at room temperature using 540 nm excitation and 585 nm emission wavelengths.
In some instances, the percent inhibition at a given concentration is reported instead of the IC50.

[2] = Aβ Cell Based Assay (Aβ1-40 secretion, ELISA); parameters: species or system human; conditions: Homo sapiens, HEK293; HEK-APPwt cells, 6 hours incubation, reduction of Aβ1-40 secretion; asterisk = mean
Procedure: (§1) Aβ Cell Based Assay Procedure
(§2) In the following assay, the proteolytic activity of BACE in cells exposed to varying concentrations of a compound of interest is measured by observing the amount of Aβ1-40 secreted from HEK293 cells (Human Embryonic Kidney epithelial cell line) stably expressing wildtype human APP695 protein (HEK-APPwt cells).
(§3) HEK-APPwt cells were grown in high glucose DMEM (Dulbecco's Modified Eagles Medium SIGMA Cat. #D5796) supplemented with 25 mM HEPES (4-(2-hydroxyethyl)-1-piperazineethanesulfonic acid) (pH 7.4) (Invitrogen Cat. #15630-114), 0.1 mM NEAA (Non-essential Amino Acids) (BioWhittaker Cat. #13-114E), 10% fetal bovine serum (SIGMA Cat. #F4135) and 250 μg/mL hygromycin (Invitrogen Cat. #10687-010) in T-225 flasks at 37° C. with 5% CO2 and humidity control.
(§4) Test compounds were initially prepared in DMSO and diluted with DMEM media containing 2% FBS (Fetal bovine serum). Ten standard compound solutions were prepared having a range of concentrations. The standard compound solutions were used to determine the EC50 of the test compound. The range of concentrations chosen may depend on the compound's predicted potency.
(§5) To prepare cells for the assay, a flask containing HEK-APPwt cells were trypsinized briefly (1 mL trypsin), and once the cells detached, 4 mL of 10% FBS-DMEM was added to the flask. The detached cells were centrifuged at 900 rpm for 5 min to form a pellet.
(§6) The HEK-APPwt cell pellet was re-suspended with 10 mL DMEM media containing 2% FBS. 80 μL of the cell suspension was added to each well of a 96-well cell culture plate to give 100×10^4 cells/ml. 10 μL of a standard compound solution was added to each well of the 96-well cell culture plate followed by 10 μL of Alamar blue solution. The cells were incubated at 37° C. in a 5% CO2 incubator for 6 hours.
(§7) At the end of the incubation, the plates were removed from incubator, and the supernatant was collected. Aβ1-40 concentration in the medium was measured by using a commercial Aβ1-X ELISA kit (IBL, Japan Cat. #27729). Briefly, the ELISA plates were coated with an anti-human Aβ (N)(82E1) mouse IgG monoclonal antibody. A horseradish peroxidase conjugated anti-human Aβ11-28 mouse IgG monoclonal antibody was used for detection. The cell culture supernatant was diluted with EIA buffer+protease inhibitors (kit buffer containing protease inhibitors (1 mL PI/30 mL buffer)). A 100 μL aliquot of the diluted supernatant was added to each well of the ELISA plate and incubated for 6 hrs at 4° C. The ELISA plate was washed 8 times with phosphate buffered saline (PBS) containing 0.05% TWEEN 20.
(§8) A 100 μL of detection antibody was then added and incubated for 1 hour at 4° C. The plate was washed 8 times with PBS buffer containing 0.05% Tween 20 followed by addition of 100 μL of the chromogen tetramethylbenzidine (TMB). The plate was incubated in the dark at room temperature for about 30 min and a stop solution (1N H2SO4) was added.
(§9) The intensity of the color developed was measured at 450 nm. The optical density at 450 nm (OD450) is proportional to the concentration of human Aβ1-40 secreted by the cell. As a reference, N—[N-(3,5-difluorophenacetyl-L-alanyl)]—S-phenylglycine t-butyl ester (DAPT, a γ-secretase inhibitor) was used to indicate 100% inhibition of […]. Thus, the assay measures the ability of a compound of interest to reduce Aβ1-40 secretion. Compound potency is reported in Table 3 as the EC50 by calculating the percent inhibition at all concentration levels and the data were fit with non-linear curve fitting algorithm using GraphPad Prism.

[3] = test system: Aβ1-40 secreted from HEK293 cells stably expressing wildtype human APP695 protein (HEK-APPwt cells); proteolytic activity of BACE; assay: Aβ Cell Based Assay (Aβ1-40 secretion, ELISA); conditions: 6 hours incubation, reduction of Aβ1-40 secretion, asterisk = mean
Procedure: as §1, §2, §3, §4, §5, §6, §7, §8, §9

T1 sequence (P56817 46-457 limits assumed): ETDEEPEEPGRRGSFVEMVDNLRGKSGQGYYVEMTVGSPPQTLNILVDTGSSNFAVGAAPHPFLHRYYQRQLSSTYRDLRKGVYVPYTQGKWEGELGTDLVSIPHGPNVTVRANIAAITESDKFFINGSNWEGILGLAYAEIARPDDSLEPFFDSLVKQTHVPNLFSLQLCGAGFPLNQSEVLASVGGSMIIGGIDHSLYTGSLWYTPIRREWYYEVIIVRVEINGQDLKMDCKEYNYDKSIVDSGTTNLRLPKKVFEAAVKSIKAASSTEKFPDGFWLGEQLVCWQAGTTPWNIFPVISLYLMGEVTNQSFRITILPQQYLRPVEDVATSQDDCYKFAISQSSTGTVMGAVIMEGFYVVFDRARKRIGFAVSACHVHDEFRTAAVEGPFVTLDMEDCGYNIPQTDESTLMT

Compound | IC50 [1] [µM] | EC50 [2] [µM] | EC50 [3] [µM]
C[C@H](C[C@@H](C)O)Oc1ccc2nc(C(=O)Nc3nc4cc(-c5cccc(C(F)(F)F)c5)ccc4[nH]3)cn2n1 [Example 120, 6-((1R,3R)-3-hydroxy-1-methyl-butoxy)-imidazo[1,2-b]pyridazine-2-carboxylic acid [5-(3-trifluoromethyl-phenyl)-1H-benzoimidazol-2-yl]-amide] | 0.455 | 0.07 | 
C[C@@H](O)COc1ccc2nc(C(=O)Nc3nc4cc(-c5ccc(C(F)(F)F)c(Cl)c5)ccc4[nH]3)cn2n1 [Example 122, 6-((R)-2-hydroxy-propoxy)-imidazol[1,2-b]pyridazine-2-carboxylic acid [5-(3-chloro-4-trifluoromethyl-phenyl)-1H-benzoimidazol-2-yl]-amide] | 0.371 | 0.1 | 
CCC[C@@H](O)COc1ccc2nc(C(=O)Nc3nc4cc(-c5cc(F)cc(Cl)c5)ccc4[nH]3)cn2n1 [Example 124] | 0.419 | 0.3 | 
O=C(Nc1nc2cc(-c3ccc(F)c(Cl)c3)ccc2[nH]1)c1cn2nc(OCCO)ccc2n1 [Example 131, 6-(2-Hydroxy-ethoxy)-imidazo[1,2-b]pyridazine-2-carboxylic acid [5-(3-chloro-4-fluoro-phenyl)-1H-benzoimidazol-2-yl]-amide] | 0.245 | 0.15 | 
O=C(Nc1nc2cc(-c3cc(F)cc(Cl)c3)ccc2[nH]1)c1cn2nc(OCC3(CO)CCC3)ccc2n1 [Example 132] | 0.344 | 0.47 | 
O=C(Nc1nc2cc(-c3cc(F)cc(Cl)c3)ccc2[nH]1)c1cn2nc(OC3COC4C(O)COC34)ccc2n1 (centres unmarked) [Example 133] | 0.262 | 0.56 | 
O=C(Nc1nc2cc(-c3cccc(OC(F)(F)F)c3)ccc2[nH]1)c1cn2nc(OC[C@H]3CC[C@@H](CO)O3)ccc2n1 [Example 134] | 0.203 | 0.75 | 
CN(C)C(=O)COc1ccc2nc(C(=O)Nc3nc4cc(-c5cccc(C(F)(F)F)c5)ccc4[nH]3)cn2n1 [Example 141] | 0.172 | 1.3 | 
O=C(Nc1nc2cc(-c3cccc(OC(F)(F)F)c3)ccc2[nH]1)c1cn2nc(OCCO)ccc2n1 [Example 143, 6-(2-Hydroxy-ethoxy)-imidazol[1,2-b]pyridazine-2-carboxylic acid [5-(3-trifluoromethoxy-phenyl)-1H-benzoimidazol-2-yl]-amide] | 0.172 |  | 1.07
C[C@@H](O)[C@@H](C)Oc1ccc2nc(C(=O)Nc3nc4cc(-c5cc(F)cc(Cl)c5)ccc4[nH]3)cn2n1 [Example 146, 6-((1R,2R)-2-hydroxy-1-methyl-propoxy)-imidazo[1,2-b]pyridazine-2-carboxylic acid [5-(3-chloro-5-fluoro-phenyl)-1H-benzoimidazol-2-yl]-amide] | 0.376 | 0.11 | 

Continued, in another order:

IC50 [1] [µM] | EC50 [2] [µM] | Compound | EC50 [3] [µM]
0.298 | 0.77 | C[C@H](O)CCOc1ccc2nc(C(=O)Nc3nc4cc(-c5cc(F)cc(Cl)c5)ccc4[nH]3)cn2n1 [Example 119] | 
0.372 | 0.12 | C[C@H](O)COc1ccc2nc(C(=O)Nc3nc4cc(-c5ccc(C(F)(F)F)c(Cl)c5)ccc4[nH]3)cn2n1 [Example 123, 6-((S)-2-Hydroxy-propoxy)-imidazo[1,2-b]pyridazine-2-carboxylic acid [5-(3-chloro-4-trifluoromethyl-phenyl)-1H-benzoimidazol-2-yl]-amide] | 
0.163 | 0.71 | CCCC[C@H](O)COc1ccc2nc(C(=O)Nc3nc4cc(-c5cc(F)cc(Cl)c5)ccc4[nH]3)cn2n1 [Example 127] | 
0.169 | 0.23 | O=C(Nc1nc2cc(-c3cc(F)cc(Cl)c3)ccc2[nH]1)c1cn2nc(OCCCCO)ccc2n1 [Example 130] | 
0.117 | 0.45 | COC[C@H](COc1ccc2nc(C(=O)Nc3nc4cc(-c5cccc(C(F)(F)F)c5)ccc4[nH]3)cn2n1)OC [Example 135] | 
0.134 | 0.63 | O=C(Nc1nc2cc(-c3cc(F)cc(Cl)c3)ccc2[nH]1)c1cn2nc(N3CCC(O)CC3)ccc2n1 [Example 142, 6-(4-Hydroxy-piperidin-1-yl)-imidazo[1,2-b]pyridazine-2-carboxylic acid [5-(3-chloro-5-fluoro-phenyl)-1H-benzoimidazol-2-yl]-amide] | 
0.128 | 0.94 | O=C(Nc1nc2cc(-c3cccc(Cl)c3)ccc2[nH]1)c1cn2nc(OCCO)ccc2n1 [Example 144, 6-(2-hydroxy-ethoxy)-imidazo[1,2-b]pyridazine-2-carboxylic acid [5-(3-chloro-phenyl)-1H-benzoimidazol-2-yl]-amide] | 
0.15 | 1.09 | C[C@H](O)COc1ccc2nc(C(=O)Nc3nc4cc(-c5cccc(OC(F)(F)F)c5)ccc4[nH]3)cn2n1 [Example 145, 6-((S)-2-hydroxy-propoxy)-imidazo[1,2-b]pyridazine-2-carboxylic acid [5-(3-trifluoromethoxy-phenyl)-1H-benzoimidazol-2-yl]-amide] | 
0.207 | 0.27 | O=C(Nc1nc2cc(-c3cc(F)cc(Cl)c3)ccc2[nH]1)c1cn2nc(OC[C@@H]3CCCO3)ccc2n1 [Example 147, 6-[(S)-1-(Tetrahydro-furan-2-yl)methoxy]-imidazol[1,2-b]pyridazine-2-carboxylic acid [5-(3-chloro-5-fluoro-phenyl)-1H-benzoimidazol-2-yl]-amide] | 
